Measurements reported in the supplement of paper PMC10627819.

Legend:
Experiment in all cases: Bliss interaction score (quartile over a dose matrix) (fitness difference); higher = more antagonism (negative = synergy)
S. aureus Newman = tested on: S. aureus Newman
Summary of the method: (§1)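 Fitness is OD595 at stationary-phase entry relative to the plate's robust no-drug mean, capped at 1. Single-drug fitness was inferred from combinations. The Bliss score is observed minus product-expected fitness, summarised by quartiles over technical, biological and donor/recipient replicates.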

B. subtilis 168 = tested on: B. subtilis 168
Summary of the method: as §1

S. pneumoniae D39V = tested on: S. pneumoniae D39V
Summary of the method: as §1

S. aureus DSM 20231 = tested on: S. aureus DSM 20231
Summary of the method: as §1
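Also: first quartile when negative (synergy) and third quartile when positive (antagonism).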

SMILES | Bliss interaction score (S. aureus Newman) | Bliss interaction score (B. subtilis 168) | Bliss interaction score (S. pneumoniae D39V) | Bliss interaction score (S. aureus DSM 20231) | Bliss interaction score (S. aureus Newman; main component drawn) | Bliss interaction score (B. subtilis 168; main component drawn) | Bliss interaction score (S. pneumoniae D39V; main component drawn) | Bliss interaction score (S. aureus DSM 20231; main component drawn)
CO/N=C(\C(=O)N[C@@H]1C(=O)N2C(C(=O)O)=C(COC(C)=O)CS[C@H]12)c1csc(N)n1 [Cefotaxime] + N[C@@H]1CONC1=O [CycloserineD] | 0.0643 | 0.0869 | -0.0787 | 0.0848 | – | – | – | –
C[C@@H]1O[C@@H]1P(=O)(O)O [Fosfomycin] + CC1(C)S[C@@H]2[C@H](NC(=O)Cc3ccccc3)C(=O)N2[C@H]1C(=O)O [PenicillinG] | 0.0465 | -0.0401 | -0.0713 | -0.136 | – | – | – | –
N#CC(C#N)=NNc1cccc(Cl)c1 [CCCP] + Cc1ncc([N+](=O)[O-])n1CCO [Metronidazole] | -0.0331 | 0.0615 | 0.12 | 0.0642 | – | – | – | –
O=C(O)c1cn(C2CC2)c2cc(N3CCNCC3)c(F)cc2c1=O [Ciprofloxacin] + CO[C@@]12[C@H](COC(N)=O)C3=C(C(=O)C(C)=C(N)C3=O)N1C[C@@H]1N[C@@H]12 [MitomycinC] | 0.0577 | -0.108 | -0.111 | -0.057 | – | – | – | –
N#CC(C#N)=NNc1cccc(Cl)c1 [CCCP] + C[C@@H]1O[C@@H]1P(=O)(O)O [Fosfomycin] | 0.0906 | 0.0638 | 0.0604 | 0.0417 | – | – | – | –
CC(=O)Oc1ccccc1C(=O)O [Acetylsalicylicacid] + O=C(O[C@@H]1Cc2c(O)cc(O)cc2O[C@@H]1c1cc(O)c(O)c(O)c1)c1cc(O)c(O)c(O)c1 [EGCG] | 0.0426 | 0.141 | -0.0702 | 0.159 | – | – | – | –
CO/N=C(\C(=O)N[C@@H]1C(=O)N2C(C(=O)O)=C(COC(C)=O)CS[C@H]12)c1csc(N)n1 [Cefotaxime] + CN(C)[C@@H]1C(O)=C(C(N)=O)C(=O)[C@@]2(O)C(O)=C3C(=O)c4c(O)ccc(Cl)c4[C@@](C)(O)[C@H]3C[C@@H]12 [Clortetracycline] | 0.0483 | 0.0481 | 0.0665 | 0.0917 | – | – | – | –
CO/N=C(\C(=O)N[C@@H]1C(=O)N2C(C(=O)O)=C(COC(N)=O)CS[C@H]12)c1ccco1 [Cefuroxime] + CC1(C)S[C@@H]2[C@H](NC(=O)Cc3ccccc3)C(=O)N2[C@H]1C(=O)O [PenicillinG] | 0.102 | -0.0758 | -0.0476 | -0.154 | – | – | – | –
COc1cccc2c1C(=O)c1c(O)c3c(c(O)c1C2=O)C[C@@](O)(C(=O)CO)C[C@@H]3O[C@H]1C[C@H](N)[C@H](O)[C@H](C)O1 [Doxorubicin] + C[C@H]1c2cccc(O)c2C(=O)C2=C(O)[C@]3(O)C(=O)C(C(N)=O)=C(O)[C@@H](N(C)C)[C@@H]3[C@@H](O)[C@@H]21 [Doxycycline] | -0.0163 | 0.0384 | -0.144 | 0.0574 | – | – | – | –
CO/N=C(\C(=O)N[C@@H]1C(=O)N2C(C(=O)O)=C(COC(C)=O)CS[C@H]12)c1csc(N)n1 [Cefotaxime] + CO[C@@]12[C@H](COC(N)=O)C3=C(C(=O)C(C)=C(N)C3=O)N1C[C@@H]1N[C@@H]12 [MitomycinC] | 0.0256 | -0.135 | 0.118 | 0.0387 | – | – | – | –
CN(C)[C@@H]1C(O)=C(C(N)=O)C(=O)[C@@]2(O)C(O)=C3C(=O)c4c(O)ccc(Cl)c4[C@@](C)(O)[C@H]3C[C@@H]12 [Clortetracycline] + CCC[C@@H]1C[C@@H](C(=O)N[C@@H]([C@H]2O[C@H](SC)[C@H](O)[C@@H](O)[C@H]2O)[C@@H](C)O)N(C)C1 [Lincomycin] | -0.144 | 0.103 | 0.036 | -0.171 | – | – | – | –
N#CC(C#N)=NNc1cccc(Cl)c1 [CCCP] + CCCCCCCCCC(=O)N[C@@H]1[C@H]([C@@H]([C@H](O[C@H]1OC2=C3C=C4C=C2OC5=C(C=C(C=C5)[C@H]([C@H]6C(=O)N[C@@H](C7=C(C(=CC(=C7)O)OC8[C@H]([C@H]([C@@H]([C@H](O8)CO)O)O)O)C9=C(C=CC(=C9)[C@H](C(=O)N6)NC(=O)[C@@H]4NC(=O)[C@@H]1C2=CC(=CC(=C2)OC2=C(C=CC(=C2)[C@H](C(=O)N[C@H](CC2=CC(=C(O3)C=C2)Cl)C(=O)N1)N)O)O)O)C(=O)O)O[C@H]1[C@@H]([C@H]([C@@H]([C@H](O1)CO)O)O)NC(=O)C)Cl)CO)O)O [Teicoplanin] | – | – | – | – | -0.0483 | 0.17 | 0.096 | 0.0772
Cc1ncc([N+](=O)[O-])n1CCO [Metronidazole] + CC[C@H]1OC(=O)[C@H](C)C(=O)[C@H](C)[C@@H](O[C@@H]2O[C@H](C)C[C@H](N(C)C)[C@H]2O)[C@](C)(OC)C[C@@H](C)C(=O)[C@H](C)[C@H]2N(CCCCn3cnc(-c4cccnc4)c3)C(=O)O[C@]12C [Telithromycin] | 0.0357 | 0.0709 | 0.157 | 0.0599 | – | – | – | –
CO/N=C(\C(=O)N[C@@H]1C(=O)N2C(C(=O)O)=C(COC(C)=O)CS[C@H]12)c1csc(N)n1 [Cefotaxime] + CC[C@H]1OC(=O)[C@H](C)[C@@H](O[C@H]2C[C@@](C)(OC)[C@@H](O)[C@H](C)O2)[C@H](C)[C@@H](O[C@@H]2O[C@H](C)C[C@H](N(C)C)[C@H]2O)[C@](C)(OC)C[C@@H](C)C(=O)[C@H](C)[C@@H](O)[C@]1(C)O [Clarithromycin] | -0.0626 | 0.0567 | 0.0611 | 0.0514 | – | – | – | –
N#CC(C#N)=NNc1cccc(Cl)c1 [CCCP] + O=C(O)[C@H]1/C(=C/CO)O[C@@H]2CC(=O)N21 [Clavulanic] | 0.0274 | 0.0453 | 0.0476 | -0.315 | – | – | – | –
CO/N=C(\C(=O)N[C@@H]1C(=O)N2C(C(=O)O)=C(COC(C)=O)CS[C@H]12)c1csc(N)n1 [Cefotaxime] + CC[C@H]1OC(=O)[C@H](C)[C@@H](O[C@H]2C[C@@](C)(OC)[C@@H](O)[C@H](C)O2)[C@H](C)[C@@H](O[C@@H]2O[C@H](C)C[C@H](N(C)C)[C@H]2O)[C@](C)(O)C[C@@H](C)C(=O)[C@H](C)[C@@H](O)[C@]1(C)O [Erythromycin] | -0.0525 | 0.0702 | 0.0515 | 0.016 | – | – | – | –
CC(=O)Oc1ccccc1C(=O)O [Acetylsalicylicacid] + CC1=C\[C@@H](O)CC(=O)Cc2nc(co2)C(=O)N2CCC=C2C(=O)O[C@H](C(C)C)[C@H](C)/C=C/C(=O)NC\C=C\1 [Virginiamycin M1] | -0.0537 | -0.0602 | -0.0556 | -0.0657 | – | – | – | –
